ChEMBL document CHEMBL5724558, “Image-based profiling of drug vulnerabilities in CRC organoids” (2024)
Values joined by “and” are separate entries in the source; they are usually repeats but may differ in a detail not shown here. Equal entries are not always repeated.

How the values were obtained:
Type in all cases: functional, Homo sapiens
Parameters in all cases: dose or concentration left out as unconfirmed
Colon cancer organoid [1] = assay: (§1) Image-based profiling of donated chemical probes and chemogenomic kinase set in O06 CRC organoid. Image analysis is performed on the sum area metric, and the data were normalized to the DMSO control. After imaging the organoid viability is measured using the OneGloEX Luciferase Assay System. The normalized viability data and sum area are reported.
Colon cancer organoid [2] = assay: as §1, with “O09” for “O06”
Colon cancer organoid [3] = assay: as §1, with “O21” for “O06”

| SMILES | Cell Viability (Colon cancer organoid [1]; Replication number 1) | Cell Viability (Colon cancer organoid [1]; Replication number 2) | Cell Viability (Colon cancer organoid [2]; Replication number 1) | Cell Viability (Colon cancer organoid [2]; Replication number 2) | Cell Viability (Colon cancer organoid [3]; Replication number 1) | Cell Viability (Colon cancer organoid [3]; Replication number 2) |
| --- | --- | --- | --- | --- | --- | --- |
| Cc1sc2c(c1C)C(c1ccc(Cl)cc1)=N[C@@H](CC(=O)NCCCCCCCCNC(=O)COc1cccc3c1C(=O)N(C1CCC(=O)NC1=O)C3=O)c1nnc(C)n1-2 (stereo not given in full) | 4.9545% and 11.7664% | 6.03% and 10.6824% | 79.9563% and 42.1947% | 86.5792% and 48.4637% | 41.9399% and 81.7113% | 36.361% and 51.9272% |
| C=CC(=O)Nc1cccc(C(=O)Nc2ccc(Nc3cc(-c4[nH]c(SC)nc4C)ccn3)cc2)c1 | 120.545% and 116.4% | 120.557% and 114.139% | 195.827% and 119.682% | 254.944% and 117.159% | 87.1744% and 91.9861% | 133.203% and 116.877% |
| Cc1c(NC(=O)c2ccc(C(C)(C)C)cc2)cccc1-c1cn(C)c(=O)c(Nc2ccc(C(=O)N3CCOCC3)cc2)n1 | 119.85% and 118.543% | 84.412% and 97.7895% | 87.7094% and 99.5999% | 109.316% and 107.058% | 86.5232% and 101.491% | 97.7388% and 99.4222% |
| CN1CCN(C(=O)C(C)(C)c2ccc(C(=O)Nc3cn4cc(-c5cc(C(C)(C)C)cc(C(C)(C)C)c5)ccc4n3)cc2)CC1 [T3-CLK-N] | 75.6351% and 77.2834% | 96.9336% and 98.0752% | 89.0201% and 93.1776% | 119.23% and 117.123% | 88.9475% and 97.2186% | 93.8303% and 107.653% |
| CC[C@H](CC(=O)O)n1c(=O)c2ncccc2n(Cc2cn(C)c3cc(C)cc(C)c23)c1=O [BI-1942] | 122.43% and 127.53% | 114.507% and 111.004% | 76.1388% and 88.7208% | 109.791% and 100.317% | 98.903% and 90.5784% | 95.5994% and 107.07% |
| Cn1c(-c2csc(C3CCN(CC4=NC5N=CC=CC5N4)CC3)n2)nc2ccccc21 (stereo not given) [BAY-070] | 51.6449% and 96.9231% | 54.618% and 76.4056% | 60.3085% and 58.8971% | 70.2327% and 76.9231% | 109.219% and 99.8545% | 106.656% and 102.481% |
| Cc1cc2c(-c3ccco3)cnc(N[C@H]3CCN(C)C[C@@H]3C(=O)NC3CCCCC3)c2[nH]c1=O [GSK791] | 106.466% and 102.024% | 100.388% and 101.634% | 46.4952% and 92.4722% | 100.727% and 114.988% | 103.348% and 100.946% | 100.095% and 111.149% |
| CN([C@@H]1CCc2c(CC(=O)O)c3cc(S(C)(=O)=O)ccc3n2C1)S(=O)(=O)c1ccc(F)cc1 [CRTH2-negative-control] | 102.982% and 101.171% | 44.9133% and 103.761% | 103.344% and 126.626% | 95.2483% and 103.103% | 114.066% and 111.772% | 101.538% and 90.3061% |
| Cn1nc(C(F)(F)F)cc1-c1cnc(N2CCc3cc(S(=O)(=O)Nc4c(F)cc(Cl)cc4F)cc(N4CCCC4=O)c32)nc1 [TP-020] | 97.5497% and 105.152% | 112.528% and 137.4% | 176.236% and 116.591% | 145.95% and 107.484% | 100.4% and 89.0686% | 74.5209% and 80.6122% |
| CCCS(=O)(=O)c1cc(NC2CC2)nc(-c2ccc3c(ccn3C3CC(C)(C)NC(C)(C)C3)c2)n1 | 40.3908% and 48.3221% | 87.7215% and 108.975% | 103.467% and 88.0989% | 115.748% and 108.331% | 82.8925% and 103.462% | 85.2127% and 87.5298% |
